The results in this text go back to patent publication US5475012A, “N-cyanoamidine derivatives as anti-influenza agents” (priority 1994, dated 1995).

Series [1] is described as follows: in vitro. To be noted: dog, mdck.
Series [2] is described as follows: in vitro. Particulars: african green monkey, vero cells.
A further series has as its system FluA/LA. Kind of series: microbe, parasite or virus in culture. Format: cell-based, influenza A virus. Particulars: for IC50: Influenza A virus, in Gallus gallus, read-out: Median Inhibiting Concentration (IC50), FluA/LA; for activity against A/LA (in words): strain specificity.
Series [3] in a line: in vitro. To be noted: human, mrc-5 cells.
Series [4] in a line: in vitro. Particulars: human, hep-2 cells.
Series [5] in a line: in vitro. Particulars: human, a549 cells.
For another series, the system named is FluB/Yama. Kind of series: microbe, parasite or virus in culture. It counts as cell-based, influenza B virus. Particulars: for IC50: Influenza B virus, read-out: Median Inhibiting Concentration (IC50), FluB/Yama; for activity against B/Yama (in words): strain specificity.
A further series deals with FluA/Kaw. Kind of series: microbe, parasite or virus in culture. Format: cell-based, influenza A virus. To be noted: for IC50: Influenza A virus, in Gallus gallus, read-out: Median Inhibiting Concentration (IC50), FluA/Kaw; for activity against A/Kaw (in words): strain specificity.
The next series deals with FluA/WSN. The series can be described thus: Anti-influenza A activity, FluA/WSN (cytopathic effect, crystal violet stain, MDCK cells). It counts as cell-based, influenza A virus. Particulars: for IC50: Influenza A virus, WSN, Table II, tested in MDCK cells, read-out: Median Inhibiting Concentration (IC50), FluA/WSN; for activity against A/WSN (in words): strain specificity. In general terms: Damage to the host cells serves as the signal in cytopathic effect assays.

≈ marks a conversion by molar mass, not a printed value.

Consider `CC(Cc1ccccc1)(C(=NC#N)NCc1ccco1)c1ccccn1` (stereo not drawn) [Example 2, N'-Cyano-N-(2-furanylmethyl)-α-methyl-α-(phenylmethyl)-2-pyridineethanimidamide], for which the MCC in “in vitro [1]”, in “in vitro [2]”, in the series “in vitro [3]”, in “in vitro [4]” and in “in vitro [5]” was over 50 µg/mL throughout. Moreover, the IC50 is over 16 µg/mL in the series with FluA/LA, over 16 µg/mL with FluB/Yama, 0.5 to 1.6 µg/mL (≈ 1.45 to 4.65 µM) in the series with FluA/Kaw and 0.16 to 0.5 µg/mL (≈ 0.465 to 1.45 µM) with FluA/WSN. The “activity against A/LA (in words)” value with FluA/LA is “inactive”. Also, the “activity against B/Yama (in words)” value in the series on FluB/Yama is “inactive”. Moreover, the “activity against A/Kaw (in words)” value with FluA/Kaw was “active”. Moreover, the “activity against A/WSN (in words)” value with FluA/WSN is on record as “active”.
For `NC(=O)c1ncn([C@@H]2O[C@H](CO)[C@@H](O)[C@H]2O)n1` [Ribavirin, reference compound], the MCC in “in vitro [1]”, in “in vitro [2]”, in “in vitro [3]”, in “in vitro [4]” and in the series “in vitro [5]” was over 100 µg/mL in each case. Besides, the IC50 was over 16 µg/mL with FluA/LA, 1.6 to 5 µg/mL (≈ 6.55 to 20.5 µM) in the series with FluB/Yama, over 16 µg/mL with FluA/Kaw and 1.6 to 5 µg/mL (≈ 6.55 to 20.5 µM) in the series with FluA/WSN.
For `CC(Cc1ccccc1)(C(=NC#N)NCCc1ccccc1)c1ccccn1` (stereo not drawn) [Example 1, N'-Cyano-α-methyl-N-(2-phenylethyl)-α-(phenylmethyl)-2-pyridineethanimidamide], the MCC in “in vitro [1]”, in “in vitro [2]”, in “in vitro [3]”, in the series “in vitro [4]” and in the series “in vitro [5]” was over 50 µg/mL throughout. Moreover, the IC50 with FluA/LA was over 16 µg/mL; with FluB/Yama it was over 16 µg/mL; with FluA/Kaw, 0.5 to 1.6 µg/mL (≈ 1.36 to 4.34 µM); in the series with FluA/WSN it was 0.16 to 0.5 µg/mL (≈ 0.434 to 1.36 µM). Moreover, the “activity against A/LA (in words)” value in the series on FluA/LA is “inactive”. For the same compound, in the series on FluB/Yama, the “activity against B/Yama (in words)” value is “inactive”. Further, the “activity against A/Kaw (in words)” value in the series with FluA/Kaw was “active”. Moreover, in the series on FluA/WSN, the “activity against A/WSN (in words)” value is “active”.
In the case of `CSC(=NC#N)NCCSCc1cccnc1Nc1ccccc1` [Example 3, N'-cyano-N-[2-[[[2-(phenylamino)-3-pyridinyl]methyl]thio]ethyl]carbamimidothioic acid methyl ester], the MCC in the series “in vitro [1]”, in the series “in vitro [2]”, in “in vitro [3]”, in “in vitro [4]” and in “in vitro [5]” was over 100 µg/mL each time.
As for `NC12CC3CC(CC(C3)C1)C2` [Amantadine, reference compound], the MCC in the series “in vitro [1]”, in the series “in vitro [2]”, in “in vitro [3]”, in the series “in vitro [4]” and in “in vitro [5]” was over 100 µg/mL in each case. Moreover, the IC50 is 0.16 µg/mL (≈ 1.06 µM) with FluA/LA, over 16 µg/mL with FluB/Yama, 0.5 to 1.6 µg/mL (≈ 3.31 to 10.6 µM) with FluA/Kaw and 16 µg/mL (≈ 106 µM) with FluA/WSN.
